According to patent US20150051210A1, “Tyrosine Kinase Inhibitor Combinations and their Use” (Novartis AG, priority 2012, published 2015):

Tests used:
[1] = tested on: phosphorylation of MET, ERK1/2, AKT, FRS2 in MKN-45; experiment: Western blots of protein phosphorylation in MKN-45 cells; format: cell-based
Description: Western Blots (Figures not Shown) MKN-45 and RT-112 cells were treated in 6-well plates for 2 hours and 18 hours in the presence or absence of purified protein (rhFGF7, rhNRG1-31, or rhHGF), and/or inhibitor (Cpd. B, Cpd. A, BGJ398). Following wash with ice-cold PBS, cells were lysed with RIPA buffer (Thermo) containing phosphatase (Thermo) and proteinase (Roche) inhibitor cocktails. Total protein was quantified by bicinchoninic protein assay (Pierce). Aliquots of 20 μg were resolved by electrophoresis on NuPAGE SDS-PAGE 4-12% BIS-Tris gels before transfer to nitrocellulose membranes. Membranes were blocked for one hour at room temperature before overnight incubation at 4° C. with the following primary antibodies (source rabbit, 1:1000 final dilution): anti-phospho-Akt (Ser473), anti-phospho-MET (Tyr1234/1235), anti-phospho-MAPK/ERK(1/2) (Thr202/Tyr204), anti-AKT, anti-MAPK/Erk(1/2), and anti-α/β-Tubulin . Anti-MET was probed at 1:800 final dilution An internal antibody was used for phospho-FRS2(Y346) (1:1500 dilution). Membranes were then washed 3 times in PBS+0.1% Tween before addition of secondary antibody, IRDye 680LT goat anti-rabbit IgG , dilution 1:15000. After one hour at room temperature, membranes were washed and bands were visualized using an Odyssey Infrared Imager.

[2] = tested on: ERK and AKT phosphorylation in KYM-1, MG-63, Hs-683 cells; experiment: Western blots in KYM-1, MG-63 and Hs-683 cells (data not shown); format: cell-based; conditions: 24 h
Description: The indicated cell lines were seeded on 6-well-plates at a density of 500000 cells/well, left for 24 h to attach and then treated with a final concentration of 1 nM of the indicated compounds for another 24 h. Growth media were then removed, cells were washed twice with ice-cold PBS and lysed in 50 mmol/L Tris pH 7.5, 120 mmol/L NaCl, 20 mmol/L NaF, 1 mmol/L EDTA, 6 mmol/L EGTA, 1 mmol/L Benzamidin, 0.2 mmol/L PMSF, 100 mmol/L sodium vanadate, 1% NP-40. The protein concentration of cleared lysates was determined with the BCA Protein Assay Kit. 80 μg protein of each sample was separated by SDS-PAGE on NuPage 4-12% Tris-Bis Midi gels, transferred to a PVDF-membrane, and probed with antibodies as listed above. After washing and incubation with secondary HRP-linked antibodies, bands were visualized using ECL detection reagent.

[3] = tested on: patient-derived non-small cell lung cancer xenograft LXFL 1121; experiment: In vivo anti-tumor efficacy study in xenograft LXFL 1121; conditions: for anti-tumor effect compared to vehicle control / Δ tumor volume: Cpd. B 10 mg/kg bid/qd; for anti-tumor effect compared to vehicle control: BGJ398 40 mg/kg qd orally, 18 days; for Δ tumor volume: end values, BGJ398 40 mg/kg qd, control C 309.6
Description: The in vivo anti-tumor efficacy study in the patient-derived non-small cell lung cancer xenograft LXFL 1121 was carried out. Xenografts were grown subcutaneously in nude mice. Eight tumor-bearing mice each were treated with either vehicle control, Cpd. B alone, BGJ398 alone or both drugs in combination at the doses and frequencies indicated. Note that frequency of Cpd. […] Tumor volumes were measured on the indicated days and synergy of the combination treatment was assessed by the method of Clarke, R., Breast Cancer Res. Treat., […].
Mice bearing xenografts derived from this model were randomized to 4 groups that were then treated with a vehicle control, Cpd. B as single agent, BGJ398 as single agent or a combination of both drugs. Cpd. B was commenced at a dose of 10 mg/kg twice daily. BGJ398 was given orally at a dose of 40 mg/kg once daily, and the same regimen for both drugs was used in combination. […] The study was continued in this setup until day 18.
The significance of combination data was assessed using the method presented by Clark (2), which can estimate interactions from limited data. For compound A, B or the combination AB (with control group C), the end values are collected. Antagonism is predicted when the calculation AB/C>A/C×B/C, additive AB/C=A/C×B/C, synergistic interactions are predicted to occur when […].

[4] = Δ tumor volume relative to control group C

## CCN1CCN(c2ccc(Nc3cc(N(C)C(=O)Nc4c(Cl)c(OC)cc(OC)c4Cl)ncn3)cc2)CC1 [BGJ398, 3-(2,6-dichloro-3,5-dimethoxy-phenyl)-1-{6-[4-(4-ethylpiperazin-1-yl)-phenylamino]-pyrimidin-4-yl}-1-methyl-urea]
[1]; MKN-45, MET inhibitor plus FGF7
  reversal of FGF7 rescue effect on FRS2 and ERK1/2 phosphorylation: reversed
[2]
  inhibition of own target as single agent (Western blot): effectively inhibited its own target
[3]
  anti-tumor effect compared to vehicle control: strong tumor growth inhibition resulting in stable disease
  Δ tumor volume: −16.6
[3]; [4]
  B/C: −0.054

## CNC(=O)c1ccc(-c2cnc3ncc(Cc4ccc5ncccc5c4)n3n2)cc1F [Cpd. B, 2-fluoro-N-methyl-4-[(7-quinolin-6-yl-methyl)-imidazo[1,2-b]triazin-2-yl]benzamide]
[1]; MKN-45, absence of added ligands
  effect on phosphorylation of several proteins (MET, ERK1/2, AKT, FRS2): profound effect
[2]
  inhibition of own target as single agent (Western blot): effectively inhibited its own target
[3]
  anti-tumor effect compared to vehicle control: very modest, statistically not significant anti-tumor effect
  Δ tumor volume: 333.6
[3]; [4]
  A/C: 1.078
